Results from US10799561B2, “Method for increasing cardiac inflow by administering a compound that binds RXFP1” (Relaxera Pharmazeutische Gesellschaft GmbH & Co. KG, priority 2014, dated 2020).
Entries after “also recorded” stand apart in the source; their conditions may differ. Ends that are not written are not given here.

What was measured:
[1] = molecular target: T1, RXFP1 (Homo sapiens, UniProt Q9HBX9); test: cAMP reporter gene assay in HEK-293T cells stably expressing RXFP1; assay type: cell-based; settings: in words
T1 construct: expressed in transfected cells; host or cells: HEK-293T cells stably transfected with RXFP1
T1 sequence (Q9HBX9 1-757): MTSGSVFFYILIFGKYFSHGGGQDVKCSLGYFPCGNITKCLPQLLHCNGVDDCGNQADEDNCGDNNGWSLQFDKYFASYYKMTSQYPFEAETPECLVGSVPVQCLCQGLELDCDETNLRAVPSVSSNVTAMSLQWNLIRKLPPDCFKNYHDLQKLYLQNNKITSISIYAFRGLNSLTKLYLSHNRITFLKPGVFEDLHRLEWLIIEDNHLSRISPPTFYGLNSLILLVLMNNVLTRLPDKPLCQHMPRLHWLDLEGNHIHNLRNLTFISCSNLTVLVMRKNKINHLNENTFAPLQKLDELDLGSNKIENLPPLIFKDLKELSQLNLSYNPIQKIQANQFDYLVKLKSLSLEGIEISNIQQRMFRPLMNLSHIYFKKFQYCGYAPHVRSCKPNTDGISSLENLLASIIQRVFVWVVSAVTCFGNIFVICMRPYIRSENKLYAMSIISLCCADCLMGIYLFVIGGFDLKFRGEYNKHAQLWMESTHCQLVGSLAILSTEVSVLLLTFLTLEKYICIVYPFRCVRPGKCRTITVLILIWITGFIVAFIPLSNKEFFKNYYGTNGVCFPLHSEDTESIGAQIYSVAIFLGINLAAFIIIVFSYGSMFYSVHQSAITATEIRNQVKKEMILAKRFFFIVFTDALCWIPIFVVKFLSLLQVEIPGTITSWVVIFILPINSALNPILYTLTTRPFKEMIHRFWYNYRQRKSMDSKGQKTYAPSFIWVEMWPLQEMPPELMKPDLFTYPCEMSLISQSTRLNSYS
Procedure: Stimulation of the RXFP1 receptor results in the activation of adenylate cyclase and therefore in an increase in cAMP. […] Each concentration point was performed in triplicate and peptides were tested in at least three independent experiments. Data were analyzed with GraphPad Prism 4.0 (GraphPad Software, San Diego, Calif., USA), and a nonlinear regression sigmoidal dose-response (variable slope) model was used to plot curves and calculate pEC50 values.

[2] = test system: patients with heart failure; settings: intravenous infusion, hemodynamic monitoring; cited from earlier work
[3] = test system: mice with diastolic heart failure and controls; test: subcutaneous infusion of relaxin in mice with diastolic dysfunction; assay type: in vivo
Procedure: The present inventors have therefore used an animal model for testing the treatment for DHF and of a stiffened heart muscle having insufficient relaxation and distensibility. The table below summarizes data obtained in mice with a type of diastolic heart failure as compared with controls. The subcutaneous infusion of isolated porcine relaxin over 12 weeks in mice (50 μg porcine relaxin/kg/d) decreased end-diastolic pressure and, consequently, improved E/A ratio, a functional parameter indicating the quality of ventricular filling. The subcutaneous infusion of relaxin was obtained by implanting in the neck portion of the mice a membrane capsule releasing continuously porcine relaxin.

[4] = control mice, 50 μg/kg/d s.c. infusion, 12 weeks, mean ± SEM
[5] = mice with diastolic dysfunction, 50 μg/kg/d s.c. infusion, 12 weeks, mean ± SEM

Compound: CC[C@H](C)[C@@H]1NC(=O)[C@H](C)NC(=O)[C@H]([C@@H](C)CC)NC(=O)[C@H](CCC(N)=O)NC(=O)[C@H](C)NC(=O)[C@H](CCCNC(=N)N)NC(=O)[C@H](C(C)C)NC(=O)[C@H](CC(C)C)NC(=O)[C@H](CCC(=O)O)NC(=O)[C@H](CCCNC(=N)N)NC(=O)CNC(=O)[C@@H](NC(=O)[C@H](CC(C)C)NC(=O)[C@H](CCCCN)NC(=O)[C@@H](NC(=O)[C@@H](NC(=O)[C@H](CCC(=O)O)NC(=O)[C@H](CCC(=O)O)NC(=O)[C@H](CCSC)NC(=O)[C@H](Cc2c[nH]c3ccccc23)NC(=O)[C@@H](N)CO)C(C)C)[C@@H](C)CC)CSSC[C@@H]2NC(=O)[C@@H](NC(=O)[C@H](CCCCN)NC(=O)[C@H](CC(N)=O)NC(=O)[C@H](C)NC(=O)[C@H](CC(C)C)NC(=O)[C@H](C)NC(=O)[C@H](CO)NC(=O)[C@H](Cc3ccc(O)cc3)NC(=O)[C@H](CC(C)C)NC(=O)[C@@H]3CCC(=O)N3)CSSC[C@H](NC(=O)CNC(=O)[C@H](C(C)C)NC(=O)[C@H](Cc3c[nH]cn3)NC2=O)C(=O)N[C@@H]([C@@H](C)O)C(=O)N[C@@H](CCCCN)C(=O)N[C@@H](CCCNC(=N)N)C(=O)N[C@@H](CO)C(=O)N[C@@H](CC(C)C)C(=O)N[C@@H](C)C(=O)N[C@@H](CCCNC(=N)N)C(=O)N[C@@H](Cc2ccccc2)C(=O)N[C@H](C(=O)O)CSSC[C@@H](C(=O)NCC(=O)N[C@@H](CCSC)C(=O)N[C@@H](CO)C(=O)N[C@H](C(=O)N[C@@H](Cc2c[nH]c3ccccc23)C(=O)N[C@@H](CO)C(=O)O)[C@@H](C)O)NC1=O [-Asp-shRlx]
- biological activity of the by-product [1]: biologically fully active

Compound: recombinant human relaxin-2 [rhRlx]
- cardiac index [2]: trends toward increases
- pulmonary wedge pressure [2]: decreases

Compound: porcine relaxin (Relaxin B chain QSTNDFIKACGRELVRLWVEICGSVSWGRTAL; Relaxin A chain RMTLSEKCCQVGCIRKDIARLC; not fully specified; ends and bridges not checked; UniProt P01348 25-56; P01348 161-182, looked up) [isolated porcine relaxin, released continuously from an implanted membrane capsule]
- E/A ratio [3, 4]: 2.4 ± 0.2
- LVEDP, left ventricular end-diastolic pressure [3, 4]: 5.2 ± 0.5 mm Hg
- LVSP, left ventricular systolic pressure [3, 4]: 109 ± 10 mm Hg
- effect on heart function in controls ([3]; control mice, in words): no pharmaceutical effects were noted
- E/A ratio ([3]; mice with diastolic dysfunction, 50 μg/kg/d s.c. over 12 weeks, in words): improved; also recorded: dramatically shifted back to the normal range
- E/A ratio [3, 5]: 2.0 ± 0.2
- LVEDP, left ventricular end-diastolic pressure [3, 5]: 7.0 ± 0.6 mm Hg
- LVSP, left ventricular systolic pressure [3, 5]: 111 ± 12 mm Hg
- end-diastolic pressure ([3]; mice, 50 μg/kg/d s.c. over 12 weeks, in words): decreased
